{
  "source": "paper PMC6698139",
  "about": "(Bioorganic & medicinal chemistry, 2019)",
  "origin": "cited, not measured here",
  "system": "S1PR2",
  "details": "[33P]S1P competitive binding assay",
  "data": [
    {"smiles": "Cc1cc(C(=O)Cn2cc(C#N)ccc2=O)c(C)n1Cc1ccccc1", "note": "[CYM-5520]", "values": [
      {"measurement": "competition with S1P", "result": "not competitive"}
    ]}
  ]
}
